These results are taken from ChEMBL document CHEMBL3638512, “Piperazine compounds” (2013).

Structures are written as SMILES.

In the assay the target is T1, Cathepsin K (Homo sapiens, UniProt P43235).
T1 sequence (P43235 whole entry): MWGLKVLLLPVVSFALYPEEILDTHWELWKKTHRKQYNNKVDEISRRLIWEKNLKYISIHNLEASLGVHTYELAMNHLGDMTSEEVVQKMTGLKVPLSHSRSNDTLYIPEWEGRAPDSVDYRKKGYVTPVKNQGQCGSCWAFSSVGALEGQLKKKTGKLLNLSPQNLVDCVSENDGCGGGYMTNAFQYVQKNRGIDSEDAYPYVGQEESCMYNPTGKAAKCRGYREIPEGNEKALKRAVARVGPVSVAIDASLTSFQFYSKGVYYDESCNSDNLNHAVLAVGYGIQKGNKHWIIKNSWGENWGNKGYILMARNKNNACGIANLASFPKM
Nature of the assay: In Vitro Inhibition Assay: In vitro cathepsin inhibition assay.

On to `C[C@H]1CN(C(=O)[C@@H](NC(=O)c2ccc(N3CCN(C)CC3)cc2)C(C)(C)C)[C@@H]2C(=O)CO[C@@H]21`, for which the affinity corresponds to a Ki of 1.1 nM.
